Data reported in patent US20250228239A1, “MOLECULES HAVING PESTICIDAL UTILITY, AND INTERMEDIATES, COMPOSITIONS, AND PROCESSES, RELATED THERETO” (priority 2024, published 2025).

How the values were obtained:
Assay type in all cases: in vivo
[1] = tested on: Cabbage Looper (Trichoplusia ni, TRIPNI); test: Bioassays on Cabbage Looper (CL), 128-well diet tray assay; details: Trichoplusia ni; Cabbage Looper; rating class; read-out: CL
How it was run: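 Diet tray, 2nd instar, 1–5 larvae/well; 50 μg/cm^2 compound surface-applied (acetone:water 90:10), dried; 8 wells/treatment; 25° C, 14:10 L:D, 5–7 d; % mortality, mean of 8 wells.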

[2] = tested on: Yellow Fever Mosquito (Aedes aegypti, AEDSAE); details: Yellow Fever Mosquito; rating class
How it was run: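 Compounds from DMSO master plates (4000 ppm stock) diluted in 90:10 water/acetone, then dispensed into six replicate plates and infested with ~1-day-old Aedes aegypti larvae in liver-powder water. Held covered at room temperature for 3 days; each well scored for larval mortality and graded on a rating scale.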

[3] = tested on: Beet Armyworm (Spodoptera exigua, LAPHEG); test: Bioassays on Beet Armyworm (BAW), 128-well diet tray assay; details: Spodoptera exigua; Beet Armyworm; rating class; read-out: BAW
How it was run: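 Percent larval mortality, averaged across eight wells, scored after five to seven days at 25° C. under 14:10 light-dark. Each well held one to five second instars feeding on diet dosed at 50 μg/cm^2 with compound from 90:10 acetone-water, solvent dried off.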

SMILES: O=C(Nc1ccc(F)c(NC(=O)C2CC(F)(F)C2(F)F)c1F)c1cc(NC(=O)[C@H]2[C@H](c3ccc(F)c(C(F)(F)F)c3)C2(Cl)Cl)ccc1Cl (stereo partly drawn) [F1481, 2-Chloro-5-((1R,3R)-2,2-dichloro-3-(4-fluoro-3-(trifluoromethyl)phenyl)cyclopropane-1-carboxamido)-N-(2,4-difluoro-3-(2,2,3,3-tetrafluorocyclobutane-1-carboxamido)phenyl)benzamide]
- pest or weed control at 50 µg/cm2 [1]: 50 to 100%
- YFM [2]: A (80–100)
- pest or weed control at 50 µg/cm2 [3]: 50 to 100%

SMILES: C=CCN(C(=O)C(F)F)c1c(F)ccc(NC(=O)c2cc(NC(=O)[C@H]3[C@H](c4ccc(F)c(C(F)(F)F)c4)C3(Cl)Cl)ccc2Cl)c1F [F1482, N-(3-(N-Allyl-2,2-difluoroacetamido)-2,4-difluorophenyl)-2-chloro-5-((1R,3R)-2,2-dichloro-3-(4-fluoro-3-(trifluoromethyl)phenyl)cyclopropane-1-carboxamido)benzamide]
- pest or weed control at 50 µg/cm2 [1]: 50 to 100%
- YFM [2]: A (80–100)
- pest or weed control at 50 µg/cm2 [3]: 50 to 100%

SMILES: O=C1CCC(C(=O)Nc2c(F)ccc(NC(=O)c3cc(NC(=O)[C@H]4[C@H](c5ccc(F)c(C(F)(F)F)c5)C4(Cl)Cl)ccc3Cl)c2F)C1 (stereo partly drawn) [F1488, 2-Chloro-5-((1R,3R)-2,2-dichloro-3-(4-fluoro-3-(trifluoromethyl)phenyl)cyclopropane-1-carboxamido)-N-(2,4-difluoro-3-(3-oxocyclopentane-1-carboxamido)phenyl)benzamide]
- pest or weed control at 50 µg/cm2 [1]: 50 to 100%
- YFM [2]: A (80–100)
- pest or weed control at 50 µg/cm2 [3]: 50 to 100%

SMILES: CC(=O)N(C)c1c(F)ccc(NC(=O)c2cc(NC(=O)[C@H]3[C@H](c4ccc(F)c(C(F)(F)F)c4)C3(Cl)Cl)ccc2Cl)c1F [F1506, 2-Chloro-5-((1R,3R)-2,2-dichloro-3-(4-fluoro-3-(trifluoromethyl)phenyl)cyclopropane-1-carboxamido)-N-(2,4-difluoro-3-(N-methylacetamido)phenyl)benzamide]
- pest or weed control at 50 µg/cm2 [1]: 50 to 100%
- YFM [2]: A (80–100)
- pest or weed control at 50 µg/cm2 [3]: 50 to 100%

SMILES: CC1(C)C(=O)CC1C(=O)Nc1c(F)ccc(NC(=O)c2cc(NC(=O)[C@H]3[C@H](c4ccc(F)c(C(F)(F)F)c4)C3(Cl)Cl)ccc2Cl)c1F (stereo partly drawn) [F1507, 2-Chloro-5-((1R,3R)-2,2-dichloro-3-(4-fluoro-3-(trifluoromethyl)phenyl)cyclopropane-1-carboxamido)-N-(3-(2,2-dimethyl-3-oxocyclobutane-1-carboxamido)-2,4-difluorophenyl)benzamide]
- pest or weed control at 50 µg/cm2 [1]: 50 to 100%
- YFM [2]: A (80–100)
- pest or weed control at 50 µg/cm2 [3]: 50 to 100%

SMILES: O=C(Nc1cc(NC(=O)C(F)(F)F)c(F)cc1F)c1cc(NC(=O)[C@H]2[C@H](c3ccc(Cl)c(Cl)c3)C2(Cl)Cl)ccc1F [F1510, 5-((1R,3R)-2,2-Dichloro-3-(3,4-dichlorophenyl)cyclopropane-1-carboxamido)-N-(2,4-difluoro-5-(2,2,2-trifluoroacetamido)phenyl)-2-fluorobenzamide]
- pest or weed control at 50 µg/cm2 [1]: 50 to 100%
- YFM [2]: A (80–100)
- pest or weed control at 50 µg/cm2 [3]: 50 to 100%

SMILES: CC(=O)Nc1cc(NC(=O)c2cc(NC(=O)[C@H]3[C@H](c4ccc(Cl)c(Cl)c4)C3(Cl)Cl)ccc2F)c(F)cc1F [F1511, N-(5-Acetamido-2,4-difluorophenyl)-5-((1R,3R)-2,2-dichloro-3-(3,4-dichlorophenyl)cyclopropane-1-carboxamido)-2-fluorobenzamide]
- pest or weed control at 50 µg/cm2 [1]: 50 to 100%
- YFM [2]: A (80–100)
- pest or weed control at 50 µg/cm2 [3]: 50 to 100%

SMILES: O=C(Nc1ccc(F)c(NC(=O)C2CCCO2)c1F)c1cc(NC(=O)[C@H]2[C@H](c3ccc(F)c(C(F)(F)F)c3)C2(Cl)Cl)ccc1Cl (stereo partly drawn) [F1521, N-(3-(2-Chloro-5-((1R,3R)-2,2-dichloro-3-(4-fluoro-3-(trifluoromethyl)phenyl)cyclopropane-1-carboxamido)benzamido)-2,6-difluorophenyl)tetrahydrofuran-2-carboxamide]
- pest or weed control at 50 µg/cm2 [1]: 50 to 100%
- YFM [2]: A (80–100)
- pest or weed control at 50 µg/cm2 [3]: 50 to 100%

SMILES: O=C(Nc1ccc(F)c(NC(=O)C(F)(F)F)c1F)c1cc(NC(=O)[C@H]2[C@H](c3cc(Cl)c(Cl)c(Cl)c3)C2(Cl)Cl)ccc1F [F1526, 5-((1R,3R)-2,2-Dichloro-3-(3,4,5-trichlorophenyl)cyclopropane-1-carboxamido)-N-(2,4-difluoro-3-(2,2,2-trifluoroacetamido)phenyl)-2-fluorobenzamide]
- pest or weed control at 50 µg/cm2 [1]: 50 to 100%
- YFM [2]: A (80–100)
- pest or weed control at 50 µg/cm2 [3]: 50 to 100%

SMILES: CC(=O)Nc1c(F)ccc(NC(=O)c2cc(NC(=O)[C@H]3[C@H](c4cc(Cl)c(Cl)c(Cl)c4)C3(Cl)Cl)ccc2F)c1F [F1528, N-(3-Acetamido-2,4-difluorophenyl)-5-((1R,3R)-2,2-dichloro-3-(3,4,5-trichlorophenyl)cyclopropane-1-carboxamido)-2-fluorobenzamide]
- pest or weed control at 50 µg/cm2 [1]: 50 to 100%
- YFM [2]: B (More than 0 – Less than 80)
- pest or weed control at 50 µg/cm2 [3]: 50 to 100%

SMILES: O=C(Nc1cc(NC(=O)C(F)(F)F)c(F)cc1F)c1cc(NC(=O)[C@H]2[C@H](c3cc(Cl)c(Cl)c(Cl)c3)C2(Cl)Cl)ccc1F [F1551, 5-((1R,3R)-2,2-Dichloro-3-(3,4,5-trichlorophenyl)cyclopropane-1-carboxamido)-N-(2,4-difluoro-5-(2,2,2-trifluoroacetamido)phenyl)-2-fluorobenzamide]
- pest or weed control at 50 µg/cm2 [1]: 50 to 100%
- YFM [2]: A (80–100)
- pest or weed control at 50 µg/cm2 [3]: 50 to 100%

SMILES: O=C(Nc1cc(NC(=O)C(F)F)c(F)cc1F)c1cc(NC(=O)[C@H]2[C@H](c3cc(Cl)c(Cl)c(Cl)c3)C2(Cl)Cl)ccc1F [F1552, 5-((1R,3R)-2,2-Dichloro-3-(3,4,5-trichlorophenyl)cyclopropane-1-carboxamido)-N-(5-(2,2-difluoroacetamido)-2,4-difluorophenyl)-2-fluorobenzamide]
- pest or weed control at 50 µg/cm2 [1]: 50 to 100%
- YFM [2]: A (80–100)
- pest or weed control at 50 µg/cm2 [3]: 50 to 100%

SMILES: CC(=O)Nc1cc(NC(=O)c2cc(NC(=O)[C@H]3[C@H](c4cc(Cl)c(Cl)c(Cl)c4)C3(Cl)Cl)ccc2F)c(F)cc1F [F1553, N-(5-Acetamido-2,4-difluorophenyl)-5-((1R,3R)-2,2-dichloro-3-(3,4,5-trichlorophenyl)cyclopropane-1-carboxamido)-2-fluorobenzamide]
- pest or weed control at 50 µg/cm2 [1]: 50 to 100%
- YFM [2]: A (80–100)
- pest or weed control at 50 µg/cm2 [3]: 50 to 100%

SMILES: O=C(Nc1c(F)ccc(NC(=O)C(F)(F)F)c1F)c1cc(NC(=O)[C@H]2[C@H](c3cc(Cl)c(Cl)c(Cl)c3)C2(Cl)Cl)ccc1F [F1554, 5-((1R,3R)-2,2-Dichloro-3-(3,4,5-trichlorophenyl)cyclopropane-1-carboxamido)-N-(2,6-difluoro-3-(2,2,2-trifluoroacetamido)phenyl)-2-fluorobenzamide]
- pest or weed control at 50 µg/cm2 [1]: 50 to 100%
- YFM [2]: A (80–100)
- pest or weed control at 50 µg/cm2 [3]: 50 to 100%

SMILES: O=C(Nc1c(F)ccc(NC(=O)C(F)F)c1F)c1cc(NC(=O)[C@H]2[C@H](c3cc(Cl)c(Cl)c(Cl)c3)C2(Cl)Cl)ccc1F [F1555, 5-((1R,3R)-2,2-Dichloro-3-(3,4,5-trichlorophenyl)cyclopropane-1-carboxamido)-N-(3-(2,2-difluoroacetamido)-2,6-difluorophenyl)-2-fluorobenzamide]
- pest or weed control at 50 µg/cm2 [1]: 50 to 100%
- YFM [2]: A (80–100)
- pest or weed control at 50 µg/cm2 [3]: 50 to 100%
